Test results published in US8247211B2, “Glycopeptide antibiotics” (American Cyanamid Company, priority 2001, dated 2012).

How the values were obtained:
Assay in all cases: In vitro antibacterial evaluation: minimum inhibitory concentration (MIC), broth dilution method
Assay type in all cases: cell-based
Settings in all cases: 18 hours at 35° C.
Enterococcus sp. = test system: Enterococcus sp.
Method in brief: (§1)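 First, organisms are seeded at 5×10^5 CFU/mL into Muller-Hinton II […]. Next, antibiotic is applied across 64-0.06 μg/mL by broth dilution (NCCLS M7-A2). Finally, the lowest inhibitory concentration is recorded as MIC.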

Streptococcus sp. = test system: Streptococcus sp.
Method in brief: as §1

Escherichia coli = test system: Escherichia coli
Method in brief: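 Values are minimum inhibitory concentrations, meaning the smallest antibiotic concentration that stops growth of the organism. They come from broth dilution in Muller-Hinton II […] per NCCLS guidance (M7-A2), using 5×10^5 CFU/mL and concentrations from 64 to 0.06 μg/mL.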

Staphylococcus sp. = test system: Staphylococcus sp.
Method in brief: as §1

α-O-[(Heptylamino)carbonyl]-cyclo(glycyl-β-methylphenylalanyl-O-(4-O-hexopyranosylhexopyranosyl)tyrosyl-3-(2-iminoimidazolidin-4-yl)seryl-3-(3-hexopyranosyl-2-iminoimidazolidin-4-yl)serylseryl] [Example 253]
64 µg/mL: MIC Enterococcus avium (GC 4558) (Enterococcus sp.; Enterococcus avium (GC 4558)) | MIC Enterococcus avium (GC 4558) (Enterococcus sp.; broth dilution, strain GC 4558) | MIC Coagulase Negative Staphylococcus (GC 4547) (Staphylococcus sp.; Coagulase Negative Staphylococcus (GC 4547)) | MIC Coagulase Negative Staphylococcus (GC 4548) (Staphylococcus sp.; Coagulase Negative Staphylococcus (GC 4548)) | MIC Coagulase Negative Staphylococcus (GC 4549) (Staphylococcus sp.; Coagulase Negative Staphylococcus (GC 4549)) | MIC Staphylococcus aureus (GC 4541) (Staphylococcus sp.; Staphylococcus aureus (GC 4541)) | MIC Staphylococcus aureus (GC 4545) (Staphylococcus sp.; Staphylococcus aureus (GC 4545)) | MIC Staphylococcus aureus-SMITH (GC 4543) (Staphylococcus sp.; Staphylococcus aureus-SMITH (GC 4543)) | MIC Staphylococcus haemolyticus (GC 4546) (Staphylococcus sp.; Staphylococcus haemolyticus (GC 4546)) | MIC Staphylococcus aureus (GC 4541) (Staphylococcus sp.; broth dilution, strain GC 4541) | MIC Staphylococcus aureus-SMITH (GC 4543) (Staphylococcus sp.; broth dilution, strain GC 4543) | MIC Staphylococcus aureus (GC 4545) (Staphylococcus sp.; broth dilution, strain GC 4545) | MIC Staphylococcus haemolyticus (GC 4546) (Staphylococcus sp.; broth dilution, strain GC 4546) | MIC Coagulase Negative Staphylococcus (GC 4547) (Staphylococcus sp.; broth dilution, strain GC 4547) | MIC Coagulase Negative Staphylococcus (GC 4548) (Staphylococcus sp.; broth dilution, strain GC 4548) | MIC Coagulase Negative Staphylococcus (GC 4549) (Staphylococcus sp.; broth dilution, strain GC 4549)
8 µg/mL: MIC Streptococcus pneumoniae (GC 1894) (Streptococcus sp.; Streptococcus pneumoniae (GC 1894)) | MIC Streptococcus pneumoniae (GC 1894) (Streptococcus sp.; broth dilution, strain GC 1894)
32 µg/mL: MIC Enterococcus faecium (GC 4557) (Enterococcus sp.; Enterococcus faecium (GC 4557)) | MIC Enterococcus faecium (GC 4557) (Enterococcus sp.; broth dilution, strain GC 4557) | MIC Streptococcus agalactiae (GC 4564) (Streptococcus sp.; Streptococcus agalactiae (GC 4564)) | MIC Streptococcus pyogenes (GC 4563) (Streptococcus sp.; Streptococcus pyogenes (GC 4563)) | MIC Streptococcus pyogenes (GC 4563) (Streptococcus sp.; broth dilution, strain GC 4563) | MIC Streptococcus agalactiae (GC 4564) (Streptococcus sp.; broth dilution, strain GC 4564) | MIC Coagulase Negative Staphylococcus (GC 6257) (Staphylococcus sp.; Coagulase Negative Staphylococcus (GC 6257)) | MIC Coagulase Negative Staphylococcus (GC 6257) (Staphylococcus sp.; broth dilution, strain GC 6257)
16 µg/mL: MIC Streptococcus pneumoniae (ATCC 6301) (Streptococcus sp.; Streptococcus pneumoniae (ATCC 6301)) | MIC Streptococcus pneumoniae (GC 4565) (Streptococcus sp.; Streptococcus pneumoniae (GC 4565)) | MIC Streptococcus pneumoniae (ATCC 6301) (Streptococcus sp.; broth dilution, strain ATCC 6301) | MIC Streptococcus pneumoniae (GC 4565) (Streptococcus sp.; broth dilution, strain GC 4565)
2 µg/mL: MIC Escherichia coli (GC 4560) (Escherichia coli; Escherichia coli (GC 4560))
>64 µg/mL: MIC Enterococcus faecalis (ATCC 29212) (Enterococcus sp.; Enterococcus faecalis (ATCC 29212)) | MIC Enterococcus faecalis (GC 2242) (Enterococcus sp.; Enterococcus faecalis (GC 2242)) | MIC Enterococcus faecalis (GC 2691) (Enterococcus sp.; Enterococcus faecalis (GC 2691)) | MIC Enterococcus faecalis (GC 3059) (Enterococcus sp.; Enterococcus faecalis (GC 3059)) | MIC Enterococcus faecalis (GC 4552) (Enterococcus sp.; Enterococcus faecalis (GC 4552)) | MIC Enterococcus faecalis (GC 4553) (Enterococcus sp.; Enterococcus faecalis (GC 4553)) | MIC Enterococcus faecalis (GC 4554) (Enterococcus sp.; Enterococcus faecalis (GC 4554)) | MIC Enterococcus faecalis (GC 6189) (Enterococcus sp.; Enterococcus faecalis (GC 6189)) | MIC Enterococcus faecium (GC 2243) (Enterococcus sp.; Enterococcus faecium (GC 2243)) | MIC Enterococcus faecium (GC 4556) (Enterococcus sp.; Enterococcus faecium (GC 4556)) | MIC Enterococcus faecalis (ATCC 29212) (Enterococcus sp.; broth dilution, strain ATCC 29212) | MIC Enterococcus faecalis (GC 2242) (Enterococcus sp.; broth dilution, strain GC 2242) | MIC Enterococcus faecium (GC 2243) (Enterococcus sp.; broth dilution, strain GC 2243) | MIC Enterococcus faecalis (GC 2691) (Enterococcus sp.; broth dilution, strain GC 2691) | MIC Enterococcus faecalis (GC 3059) (Enterococcus sp.; broth dilution, strain GC 3059) | MIC Enterococcus faecalis (GC 4552) (Enterococcus sp.; broth dilution, strain GC 4552) | MIC Enterococcus faecalis (GC 4553) (Enterococcus sp.; broth dilution, strain GC 4553) | MIC Enterococcus faecalis (GC 4554) (Enterococcus sp.; broth dilution, strain GC 4554) | MIC Enterococcus faecium (GC 4556) (Enterococcus sp.; broth dilution, strain GC 4556) | MIC Enterococcus faecalis (GC 6189) (Enterococcus sp.; broth dilution, strain GC 6189) | MIC Escherichia coli (ATCC 25922) (Escherichia coli; Escherichia coli (ATCC 25922)) | MIC Escherichia coli (GC 4559) (Escherichia coli; Escherichia coli (GC 4559)) | MIC Coagulase Negative Staphylococcus (GC 4551) (Staphylococcus sp.; Coagulase Negative Staphylococcus (GC 4551)) | MIC Staphylococcus aureus (ATCC 29213) (Staphylococcus sp.; Staphylococcus aureus (ATCC 29213)) | MIC Staphylococcus aureus (GC 1131) (Staphylococcus sp.; Staphylococcus aureus (GC 1131)) | MIC Staphylococcus aureus (GC 3051) (Staphylococcus sp.; Staphylococcus aureus (GC 3051)) | MIC Staphylococcus aureus (GC 3053) (Staphylococcus sp.; Staphylococcus aureus (GC 3053)) | MIC Staphylococcus aureus (GC 4542) (Staphylococcus sp.; Staphylococcus aureus (GC 4542)) | MIC Staphylococcus aureus (GC 4544) (Staphylococcus sp.; Staphylococcus aureus (GC 4544)) | MIC Staphylococcus aureus (ATCC 29213) (Staphylococcus sp.; broth dilution, strain ATCC 29213) | MIC Staphylococcus aureus (GC 1131) (Staphylococcus sp.; broth dilution, strain GC 1131) | MIC Staphylococcus aureus (GC 3051) (Staphylococcus sp.; broth dilution, strain GC 3051) | MIC Staphylococcus aureus (GC 3053) (Staphylococcus sp.; broth dilution, strain GC 3053) | MIC Staphylococcus aureus (GC 4542) (Staphylococcus sp.; broth dilution, strain GC 4542) | MIC Staphylococcus aureus (GC 4544) (Staphylococcus sp.; broth dilution, strain GC 4544) | MIC Coagulase Negative Staphylococcus (GC 4551) (Staphylococcus sp.; broth dilution, strain GC 4551)
